Measurements from patent publication EP4786487A1, “PEPTIDE” (Peptidream Inc, priority 2023, dated 2025).
pIC50: −log10 of the molar value. Where two headings read alike, the source gives them in different places. Starred links: 1 amine or outer side, 2 acyl side, 3 side chain; linkers in the order of their positions; H or OH if unused. Positions of bridges follow the written chain, without caps; N, C: chain ends. Non-standard residues stand in square brackets, D forms with d. Residues, ends and D or L forms follow the SMILES beside them. Trp(6-OH,1-(4-HO2C-Ph)) = N[C@@H](Cc1cn(-c2ccc(C(=O)O)cc2)c2cc(O)ccc12)C(=O)O; Phe(3-OCH2COOH) = N[C@@H](Cc1cccc(OCC(=O)O)c1)C(=O)O; N(CH2CH2CO)Gly = O=C(CN(CCC(=O)[*:3])[*:1])[*:2]; Phe(4-COOH) = N[C@@H](Cc1ccc(C(=O)O)cc1)C(=O)O; Gly(N(CH2)3COOH) = O=C(O)CCCNCC(=O)O; X1 = CCCCCCC[C@H](N[*:1])C(=O)[*:2]; NMeF = CN[C@@H](Cc1ccccc1)C(=O)O; NMeDap = CN[C@@H](CN)C(=O)O; NMeA = CN[C@@H](C)C(=O)O; Sar = CNCC(=O)O

Key:
[1] = Distribution of peptide in skeletal muscle (plasma and quadriceps concentrations); format: in vivo; conditions: mouse, sc, 10 mg/kg subcutaneously, male CD1 mice; for level at 24 h: 24 hr after administration; for level at 48 h: 48 hr after administration; for level at 72 h: 72 hr after administration
Method: The peptide Myostatin_99_Variant_07 (SEQ ID NO: 3), synthesized according to Example 1, was administered subcutaneously at 10 mg/kg to male 6-8-week-old CD1 mice. Plasma and quadriceps concentrations were measured at 24, 48, and 72 hours after administration. […]
Note that plasma was separated from blood by centrifugation; 25% homogenate of tissue was prepared and deproteinized with 5% formic acid-containing acetonitrile; and the drug concentrations were determined using an LC/MS/MS system (LCMS-8060, Shimadzu Corporation).

Myostatin [2] = biological target: T1, Myostatin (Homo sapiens, UniProt O14793); assay: Reporter gene assay for myostatin signaling in HepG2 cell line, Evaluation Procedure (1), myostatin inhibition; format: cell-based
T1 construct: active myostatin (also called mature myostatin) is a homodimer consisting of two C-terminal growth factor domains; purchased R&D systems 788-G8/CF
T1 sequence (O14793 267-375): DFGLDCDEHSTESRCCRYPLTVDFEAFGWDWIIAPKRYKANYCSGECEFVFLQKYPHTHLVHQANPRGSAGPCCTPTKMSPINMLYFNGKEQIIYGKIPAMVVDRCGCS
Method in brief: (§1)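 IC50 derived from One-Glo luciferase luminescence after 20–24 h at 37 °C. Peptides titrated 4-fold at 0.006–100 nmol/L against myostatin or 0.12–2000 nmol/L against GDF-11 in HepG2 cells carrying a transfected CAGA12-luciferase reporter, kept in 0.1% BSA EMEM.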

Myostatin [3] = assay: as above; format: cell-based; conditions: Method A; GDF-11 IC50 versus Myostatin IC50
Method in brief: as §1

[4] = Muscle strength, body weight and serum creatine kinase in B10 mdx mice; format: in vivo, C57BL/10-mdx/Jcl mice; conditions: 10 mg/kg subcutaneous
Method: (§2) In this Example, the effect of the peptide Myostatin_99_Variant_07 (SEQ ID NO: 3), synthesized according to Example 1, on improvement of muscle strength in DMD model mice was evaluated using B10 mdx model mice (NPL 17).
(§3) To five-week-old male C57BL/10-mdx/Jcl (CLEA Japan, Inc.) mice, the peptide or solvent control (Vehicle) PBS was subcutaneously administered as shown in Table 11 three times a week or every day for 5 weeks.
(§4) Using a smart-type grip strength meter for rats and mice (MK-380V; Muromachi Kikai Co., Ltd.), forelimb and hindlimb grip strength measurements and body weight measurements were performed on the day of completion of the acclimation period (grouping day), and on Days 7, 14, 21, 27, and 33. The measurements were conducted with individual identification numbers blinded so that the examiner was unaware of the test conditions of the mice. The grip strength was measured seven times consecutively, and the average of five points, excluding the two points: the highest and lowest values, was used as individual data. The body weight was weighed using an electronic balance.
(§5) Serum creatine kinase (CK) concentrations (mean ± SEM) on Day 35, when the animals were euthanized, were also examined.

B10 mdx model mice = assay: Improvement of muscle strength and inhibition of muscle necrosis in B10 mdx mice; format: in vivo, C57BL/10-mdx/Jcl mice; conditions: 10 mg/kg subcutaneous
Method: as §2, §3, §4, §5

GDF-11 [5] = biological target: T2, GDF-11 (Homo sapiens, UniProt O95390); assay: Reporter gene assay for myostatin signaling in HepG2 cell line, Evaluation Procedure (1), GDF-11 inhibition; format: cell-based
T2 construct: purchased R&D systems 1958-GD-G8/CF
T2 sequence (O95390 299-407): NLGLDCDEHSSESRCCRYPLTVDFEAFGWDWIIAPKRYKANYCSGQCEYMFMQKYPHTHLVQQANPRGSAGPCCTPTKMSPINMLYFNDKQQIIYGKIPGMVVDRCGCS
Method in brief: as §1

GDF-11 [6] = assay: as above; format: cell-based; conditions: GDF-11 IC50 relative to myostatin IC50, HepG2
Method in brief: as §1

[7] = plasma, read-out: Plasma concentration
[8] = quadriceps muscle, quadriceps, read-out: Intramuscular concentration

level at 24 h [1, 7]	level at 48 h [1, 7]	level at 72 h [1, 7]	level at 24 h [1, 8]	level at 48 h [1, 8]	level at 72 h [1, 8]	pIC50 (Myostatin [2]; Method A: Myostatin 10 ng/mL, read-out: IC50 (Luciferase) Myostatin HepG2)	pIC50 (GDF-11 [5]; Method A: GDF-11 10 ng/mL, read-out: IC50 (Luciferase) GDF-11 HepG2)	pIC50 (Myostatin [2]; HepG2, luciferase reporter, Evaluation Procedure (1), Method D)	pIC50 (GDF-11 [5]; HepG2, luciferase reporter, Evaluation Procedure (1), Method D, read-out: IC50 (Luciferase) GDP-11 HepG2)	SMILES	Selectivity (Myostatin [3])	time-course change in grip strength ([4]; vs. PBS (Fig. 3))	time-course change in body weight ([4]; vs. Vehicle (Fig. 4))	time-course change in grip strength (B10 mdx model mice; 3 times a week, vs. PBS Vehicle group, Fig. 3)	time-course change in body weight (B10 mdx model mice; 3 times a week, vs. Vehicle group, Fig. 4)	Serum creatine kinase (CK) concentrations (mean ± SEM) (B10 mdx model mice; Day 35, Vehicle group 3,836 ± 754 IU/L)	Selectivity (GDF-11 [6])
232 ng/mL	55 ng/mL	40 ng/mL	283 ng/mL	190 ng/mL	74 ng/mL	7.58	5.98	–	–	CC[C@H](C)[C@@H]1NC(=O)[C@H](Cc2ccccc2)N(C)C(=O)[C@H](Cc2ccc(O)cc2)NC(=O)[C@H](Cc2c[nH]c3ccccc23)NC(=O)[C@H](C)NC(=O)CN(CCCC(=O)O)C(=O)CSC[C@H](C(=O)O)NC(=O)[C@H](Cc2ccccc2)N(C)C(=O)[C@H](C)N(C)C(=O)[C@H](CC(C)C)NC(=O)[C@H](Cc2ccccc2)N(C)C(=O)[C@H](CCCNC(=N)N)NC(=O)[C@H](Cc2ccc(C(=O)O)cc2)NC(=O)[C@H](Cc2ccc(O)cc2)NC(=O)CN(C)C1=O [Myostatin_99_Variant_07] ({CH2CO}-[Gly(N(CH2)3COOH)]AWY[NMeF]I[Sar]Y[Phe(4-COOH)]R[NMeF]L[NMeA][NMeF][dC]-OH; thioether N-15)	40	continuous increase in grip strength was observed	cause the body weight to continuously increase	continuous increase in grip strength	body weight to continuously increase	3,247 ± 558 IU/L	–
–	–	–	–	–	–	–	–	9.92	7.34	CCCCCCC[C@@H]1NC(=O)[C@H](Cc2ccccc2)N(C)C(=O)[C@H](CCCNC(=N)N)NC(=O)[C@H](Cc2ccc(C(=O)O)cc2)NC(=O)[C@H](Cc2cccc(OCC(=O)O)c2)NC(=O)[C@H]2CCCN2C(=O)[C@H]([C@@H](C)CC)NC(=O)[C@H](Cc2ccccc2)N(C)C(=O)[C@H](Cc2ccc(O)cc2)NC(=O)[C@H](Cc2cn(-c3ccc(C(=O)O)cc3)c3cc(O)ccc23)NC(=O)[C@H](C)NC(=O)CN2CCC(=O)NC[C@@H](C(=O)N(C)[C@@H](Cc3ccccc3)C(=O)N[C@H](C)C(=O)N(C)[C@@H](C)C2=O)N(C)C1=O [Myostatin_99_v489] (cyclo(A[Trp(6-OH,1-(4-HO2C-Ph))]Y[NMeF]I[dP][Phe(3-OCH2COOH)][Phe(4-COOH)]R[NMeF][X1][NMeDap][NMeF][dA][NMeA][N(CH2CH2CO)Gly]); lactam 12-16)	–	–	–	–	–	–	365.6
